Measurements from patent US20260130847A1, “INGESTIBLE IN VIVO-ASSEMBLING DRUG RELEASE FORMULATIONS AND METHODS” (Massachusetts Institute of Technology, priority 2022, published 2026).

Legend:
lactase = biological target: T1, lactase (Aspergillus oryzae, UniProt Q2UCU3); test: Lactase activity after dithiol molecule treatment (ONPG); format: biochemical; details: 2.5, 5, or 10 mM, 37° C., 20 min
T1 construct: purchased MilliporeSigma G5160
T1 sequence (Q2UCU3 19-1005): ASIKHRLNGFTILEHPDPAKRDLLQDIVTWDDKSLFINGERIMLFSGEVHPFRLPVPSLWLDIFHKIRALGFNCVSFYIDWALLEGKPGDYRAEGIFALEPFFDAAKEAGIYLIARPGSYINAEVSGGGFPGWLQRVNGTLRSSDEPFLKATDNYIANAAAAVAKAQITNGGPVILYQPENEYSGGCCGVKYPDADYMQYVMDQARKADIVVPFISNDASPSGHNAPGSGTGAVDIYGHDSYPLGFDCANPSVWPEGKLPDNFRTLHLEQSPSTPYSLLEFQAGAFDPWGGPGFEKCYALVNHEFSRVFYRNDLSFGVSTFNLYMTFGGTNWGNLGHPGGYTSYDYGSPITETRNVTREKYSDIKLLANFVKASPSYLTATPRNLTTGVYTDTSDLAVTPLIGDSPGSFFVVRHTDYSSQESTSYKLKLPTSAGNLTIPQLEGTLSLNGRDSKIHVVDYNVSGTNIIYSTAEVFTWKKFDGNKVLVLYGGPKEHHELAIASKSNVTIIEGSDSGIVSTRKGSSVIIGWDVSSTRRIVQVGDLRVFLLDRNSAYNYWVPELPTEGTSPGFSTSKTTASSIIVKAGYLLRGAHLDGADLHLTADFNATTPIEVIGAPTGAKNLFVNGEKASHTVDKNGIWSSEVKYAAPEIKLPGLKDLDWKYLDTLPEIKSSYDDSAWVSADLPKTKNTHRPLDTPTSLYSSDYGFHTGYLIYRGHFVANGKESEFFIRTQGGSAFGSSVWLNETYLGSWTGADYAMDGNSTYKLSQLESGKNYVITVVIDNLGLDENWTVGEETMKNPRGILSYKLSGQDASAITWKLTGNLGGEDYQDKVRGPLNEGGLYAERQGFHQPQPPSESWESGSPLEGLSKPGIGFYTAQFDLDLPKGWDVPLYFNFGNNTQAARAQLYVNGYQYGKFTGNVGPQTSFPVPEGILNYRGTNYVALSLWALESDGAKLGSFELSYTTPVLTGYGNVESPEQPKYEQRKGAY
Method: Lactase (18 μg, 60 μL) was added to DMSA or PEG-dithiol to a final DMSA/PEG-dithiol concentration of 2.5, 5, or 10 mM. Treatments were incubated at 37° C. for 20 min. Lactase activity was assayed by adding 60 μL of 5 mM ONPG and incubation for 1 min at room temperature. After, 300 μL of 1 M Na2CO3 was added to stop the reaction, and the absorbance of the solution was read at λ=420 nm.

[1] = Encapsulated lumefantrine pharmacokinetics; format: in vivo; details: pigs, 960 mg lumefantrine
Method: All animal studies were performed only after MIT CAC review and approval and under veterinarian supervision. Pigs were dosed with the following treatments via endoscopy: free lumefantrine, lumefantrine encapsulated in alginate hydrogels, and lumefantrine encapsulated in LIFT hydrogels (n=3 each). All pigs were dosed with a total of 960 mg lumefantrine. For free lumefantrine, drug powder was weighed and placed across three gelatin capsules. For hydrogel formulations, lumefantrine powder was suspended in polymer solution (0.5% w/v alginate or 0.5% w/v alginate/5% 4-arm PEG-maleimide), mixed, and administered after crosslinker solution (200 mM CaCl2/10 mM DMSA). Blood was sampled via an installed ear catheter at the indicated time points, and lumefantrine area under the curve was calculated by the trapezoidal rule.
Plasma lumefantrine and desbutyl lumefantrine were separated via high pressure liquid chromatography (HPLC) and quantified with an Agilent 6495A electrospray ionization (ESI) triple quadrupole mass spectrometer (Agilent Technologies, Santa Clara, CA). Samples were introduced to the system with a 5 μL injection volume. Chromatography was performed on an Acquity BEH C18 column (2.1×50 mm, dP 1.8 μm, Waters, Milford, MA), heated to 50° C., with a binary mobile phase composed of 0.1% formic acid in water (v/v, A) and 5% tetrahydrofuran in methanol (v/v, B). […] Nozzle voltage was set to 1500 V and capillary voltage was set to 3500 V. Dynamic multiple reaction-monitoring was used to quantify analytes. Lumefantrine was monitored at transitions 528.16 to 510.00 m/z at 28 collision energy (CE), with a qualifier transition from 528.16 to 383.00 m/z (40 CE). Desbutyl lumefantrine was monitored at 472.1 to 454.1 m/z (20 CE) and qualified from 472.1 to 346 m/z (36 CE). Halofantrine was used as an internal standard and quantified with the 500.18 to 142.10 m/z transition (24 CE) and qualified with the 500.18 to 100.10 m/z transition. […]

cellulase = test: Cellulase activity after acid exposure in vitro; format: biochemical; details: short incubations in gastric acid

O=C(O)C(S)C(S)C(=O)O (centres unmarked) [DMSA, dimercaptosuccinic acid]
lactase activity after exposure to dithiol compound (lactase): attenuated lactase activity

CCCCN(CCCC)CC(O)c1cc(Cl)cc2c1-c1ccc(Cl)cc1/C2=C/c1ccc(Cl)cc1 (centres unmarked) [free lumefantrine, Lumefantrine]
AUC ([1]; pig, other: via endoscopy, plasma, n=3, trapezoidal rule, read-out: area under the curve (AUC) of released drug): 14900 ng·h/mL
Cmax ([1]; pig, other: via endoscopy, plasma, n=3, read-out: maximum observed drug concentration (Cmax)): 901 ± 197 ng/mL
time of peak plasma drug concentration post-administration ([1]; n=3): 5 to 7 h

cellulase
activity of free cellulase (cellulase): significantly degraded enzyme activity
